Data on eight compounds can be found in US3958013A, “Halogenated cyclobutyl ether anesthetics” (W. R. Grace & Co., priority 1975, dated 1976).

Bounds are passed on as bounds.

The conditions of data set [1]: cited from earlier work; for anesthetic properties / utility: prior art statement (fluorocyclobutanes: Larsen 1969 review).
Data set [2] can be described thus: standard test for evaluation of inhalation anesthetics in mice (rotating drum, 10 min exposure). Type of data set: in vivo. To be noted: mouse, in vivo, inhaled or intranasal; calculated from AC50 and LC50 minimum concentrations; read-out: AI (anesthetic index). As for the experimental part:
(§1) In this test, mice were exposed to the compound for a period of 10 minutes in a rotating drum. Observations were made of the pinch reflex, the corneal reflex and the return of the righting reflex. At least four graded doses were employed to determine the minimum concentration required to anesthetized 50% of the mice (AC50) and the minimum concentration required to kill 50% of the mice (LC50). The anesthetic index (AI) was then calculated from these minimum concentrations.

The test system of another data set is mice. Described as above. Type of data set: in vivo. The conditions noted are these: mice, inhalation, 10 minutes exposure, rotating drum; % volume. Here is the method:
as §1

Consider `FC1(F)C(F)(F)C(F)(Cl)C1(F)Cl` (centres unmarked) [1,2-dichlorohexafluoro-], for which the toxicity result in data set [1] (Larsen 1969 review) is reported as “toxic”.
For `FC1C(F)C(F)(F)C1(F)F` (centres unmarked) [1,2-dihydrohexafluoro-], the “anesthetic properties / utility” value in data set [1] is given as “possesses anesthetic properties”.
As to `COC1(F)C(F)(F)C(F)(F)C1(F)Cl` (centres unmarked) [Example 1, 1-chloro-2-methoxy-1,2,3,3,4,4-hexafluorocyclobutane], in data set [2], the selectivity ratio at 10 min was ~2. Further, the “LC50 (minimum concentration required to kill 50% of the mice)” value with mice is recorded as 7-8%.
In the same order, the values of `COC1CC(F)(F)C1(F)Cl` (centres unmarked) [Example 2, 1-chloro-2methoxy-1,4,4-trifluorocyclobutane] are > 2 and > 2%.
Turning to `COC1(F)C(F)(F)C(F)(F)C1(F)Br` (centres unmarked) [Example 3, 1-bromo-2-methoxy-1,2,3,3,4,4-hexafluorocyclobutane], the selectivity ratio at 10 min in data set [2] was > 2.5. The “LC50 (minimum concentration required to kill 50% of the mice)” value in the data set with mice is listed as > 2.5%.
Regarding `C1CCCC1` [cyclopentane], the “anesthetic properties / utility” value in data set [1] is reported as “no medical utility”.
As to `C1CC1` [cyclopropane], in data set [1], the “anesthetic properties / utility” value was “effective if inflammable anesthetic”.
With `FC1(F)C(F)(F)C(F)(F)C1(F)F` [octafluoro-], the “anesthetic properties / utility” value in data set [1] was “inactive”.
